Results on 15 compounds are retold here after patent publication US20250228239A1, “MOLECULES HAVING PESTICIDAL UTILITY, AND INTERMEDIATES, COMPOSITIONS, AND PROCESSES, RELATED THERETO” (priority 2024, published 2025).

Like-named read-outs stand apart in the source and are kept apart here.

Assay [1] concerns Beet Armyworm (Spodoptera exigua, LAPHEG). Kind of assay: Bioassays on Beet Armyworm (BAW), 128-well diet tray assay. Type of assay: in vivo. Conditions: Spodoptera exigua. Summed up:
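Second-instar larvae, one to five per well, were placed on artificial diet surface-treated with 50 μg/cm^2 compound in 90:10 acetone-water, eight wells per treatment. Trays were held 5–7 days at 25 °C, 14:10 light-dark. Percent mortality per well was averaged over eight wells.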

Assay [2] relates to Cabbage Looper (Trichoplusia ni, TRIPNI). Kind of assay: Bioassays on Cabbage Looper (CL), 128-well diet tray assay. Type of assay: in vivo. The conditions noted are these: Trichoplusia ni. An outline of the steps:
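Test molecule was dissolved in 90:10 acetone-water, applied to artificial diet at 50 μg/cm^2 and allowed to dry. Second-instar larvae were then added, one to five per well, and trays held at 25° C for five to seven days before mortality was scored and averaged.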

Setting [3] is: Beet Armyworm, Table ABC / ABC-DP rating, read-out: BAW rating.
Where [4] appears, read: Cabbage Looper, Table ABC / ABC-DP rating, read-out: CL rating.
Where [5] appears, read: Beet Armyworm, rating class, read-out: BAW.
Where [6] appears, read: Cabbage Looper, rating class, read-out: CL.
The mark [7] stands for this setting: Table ABC: Biological Results, species BAW, read-out: BAW.
Where [8] appears, read: Table ABC: Biological Results, species CL, read-out: CL.

As to `O=C(CCC(F)(F)C(F)(F)F)Nc1c(F)ccc(NC(=O)c2cc(NC(=O)[C@H]3[C@H](c4ccc(F)c(Cl)c4)C3(Cl)Cl)ccc2Cl)c1F` [F1865, 2-Chloro-5-((1R,3R)-2,2-dichloro-3-(3-chloro-4-fluorophenyl)cyclopropane-1-carboxamido)-N-(2,4-difluoro-3-(4,4,5,5,5-pentafluoropentanamido)phenyl) benzamide], the pest or weed control at 50 µg/cm2 in assay [1] (setting [3]) and in assay [2] (setting [4]) was 50 to 100% in each case.
On to `O=C(Nc1ccc(F)c(NC(=O)C(F)(F)C(F)(F)C(F)(F)F)c1F)c1cc(NC(=O)[C@H]2[C@H](c3ccc(F)c(Cl)c3)C2(Cl)Cl)ccc1Cl` [F1741, 2-Chloro-5-((1R,3R)-2,2-dichloro-3-(3-chloro-4-fluorophenyl)cyclopropane-1-carboxamido)-N-(2,4-difluoro-3-(2,2,3,3,4,4,4-heptafluorobutanamido)phenyl)benzamide], for which the pest or weed control at 50 µg/cm2 in assay [1] (setting [5]) and in assay [2] (setting [6]) was 50 to 100% throughout.
As for `O=C(Nc1c(F)ccc(NC(=O)c2cc(NC(=O)[C@H]3[C@H](c4ccc(F)c(C(F)(F)F)c4)C3(Cl)Cl)ccc2Cl)c1F)c1ccno1` [F1816, N-(3-(2-Chloro-5-((1R,3R)-2,2-dichloro-3-(4-fluoro-3-(trifluoromethyl)phenyl)cyclopropane-1-carboxamido)benzamido)-2,6-difluorophenyl)isoxazole-5-carboxamide], the pest or weed control at 50 µg/cm2 in assay [1] (setting [3]) and in assay [2] (setting [4]) was 50 to 100% in each case.
Turning to `O=C(Nc1cc(Br)c(F)cc1F)c1cc(NC(=O)[C@H]2[C@H](c3cc(Cl)cc(Cl)c3)C2(Cl)Cl)ccc1Cl` (relative stereo) [F1308, trans-N-(5-Bromo-2,4-difluorophenyl)-2-chloro-5-(2,2-dichloro-3-(3,5-dichlorophenyl)cyclopropane-1-carboxamido)benzamide], the pest or weed control at 50 µg/cm2 in assay [1] (setting [7]) and in assay [2] (setting [8]) was 50 to 100% throughout.
Regarding `O=C(NNC(=O)C1CC1(F)F)c1cc(NC(=O)[C@H]2[C@H](c3cc(Cl)cc(Cl)c3)C2(Cl)Cl)ccc1Cl` (relative stereo) [F2517, trans-2,2-Dichloro-N-(4-chloro-3-(2-(2,2-difluorocyclopropane-1-carbonyl)hydrazine-1-carbonyl)phenyl)-3-(3,5-dichlorophenyl)cyclopropane-1-carboxamide], the pest or weed control at 50 µg/cm2 in assay [1] (setting [3]) and in assay [2] (setting [4]) was 50 to 100% throughout.
`Cc1cc(NC(=O)[C@H]2[C@H](c3cc(Cl)c(Cl)c(Cl)c3)C2(Cl)Cl)cc(C(=O)Nc2ccc(F)c(NC(=O)C(F)(F)F)c2F)c1Cl` [F1487, 2-Chloro-5-((1R,3R)-2,2-dichloro-3-(3,4,5-trichlorophenyl)cyclopropane-1-carboxamido)-N-(2,4-difluoro-3-(2,2,2-trifluoroacetamido)phenyl)-3-methylbenzamide]: the pest or weed control at 50 µg/cm2 in assay [1] (setting [5]) and in assay [2] (setting [6]) was 50 to 100% in each case.
Regarding `Cc1cc(NCc2ccc(C(F)(F)F)cc2)ccc1NC(=O)c1cc(NC(=O)[C@H]2[C@H](c3cc(Cl)cc(Cl)c3)C2(Cl)Cl)ccc1Cl` (relative stereo) [F1165, trans-2-Chloro-5-(2,2-dichloro-3-(3,5-dichlorophenyl)cyclopropane-1-carboxamido)-N-(2-methyl-4-((4-(trifluoromethyl)benzyl)amino)phenyl)benzamide], the pest or weed control at 50 µg/cm2 in assay [1] (setting [7]) and in assay [2] (setting [8]) was 50 to 100% throughout.
For the compound `CCO[C@@H](C)C(=O)Nc1c(F)ccc(NC(=O)c2cc(NC(=O)[C@H]3[C@H](c4ccc(F)c(C(F)(F)F)c4)C3(Cl)Cl)ccc2Cl)c1F` [F1731, 2-Chloro-5-((1R,3R)-2,2-dichloro-3-(4-fluoro-3-(trifluoromethyl)phenyl)cyclopropane-1-carboxamido)-N-(3-((S)-2-ethoxypropanamido)-2,4-difluorophenyl)benzamide], the pest or weed control at 50 µg/cm2 in assay [1] (setting [5]) and in assay [2] (setting [6]) was 50 to 100% in each case.
For the compound `Cc1cc(F)c(NC(=O)c2cc(NC(=O)[C@H]3[C@H](c4ccc(F)c(Cl)c4)C3(Cl)Cl)ccc2Cl)cc1N` [F1135, N-(5-Amino-2-fluoro-4-methylphenyl)-2-chloro-5-((1R,3R)-2,2-dichloro-3-(3-chloro-4-fluorophenyl)cyclopropane-1-carboxamido)benzamide], the pest or weed control at 50 µg/cm2 in assay [1] (setting [7]) and in assay [2] (setting [8]) was 50 to 100% in each case.
`COc1c(Cl)cc(NC(=O)[C@H]2[C@H](c3ccc(F)c(Cl)c3)C2(Cl)Cl)cc1C(=O)NCC(F)(F)F` (relative stereo) [F2061, trans-3-Chloro-5-(2,2-dichloro-3-(3-chloro-4-fluorophenyl)cyclopropane-1-carboxamido)-2-methoxy-N-(2,2,2-trifluoroethyl)benzamide]: the pest or weed control at 50 µg/cm2 in assay [1] (setting [3]) and in assay [2] (setting [4]) was 50 to 100% each time.
Turning to `Cc1c(Cl)cc(NC(=O)[C@H]2[C@H](c3ccc(F)c(Cl)c3)C2(Cl)Cl)cc1C(=O)Nc1ccc(F)c(N)c1F` (relative stereo) [F1223, trans-N-(3-Amino-2,4-difluorophenyl)-3-chloro-5-(2,2-dichloro-3-(3-chloro-4-fluorophenyl)cyclopropane-1-carboxamido)-2-methylbenzamide], the pest or weed control at 50 µg/cm2 in assay [1] (setting [7]) and in assay [2] (setting [8]) was 50 to 100% in each case.
In general, mortality refers to the share of the test organisms that died. For the compound `O=C(NN=CC1CC1)c1cc(NC(=O)[C@H]2[C@H](c3cc(Cl)cc(Cl)c3)C2(Cl)Cl)ccc1Cl` (relative stereo) [F3007, trans-2,2-Dichloro-N-(4-chloro-3-(2-(cyclopropylmethylene)hydrazine-1-carbonyl)phenyl)-3-(3,5-dichlorophenyl)cyclopropane-1-carboxamide], the mortality at 50 µg/cm2 in assay [1] (168 h, second instar larvae, 50 μg/cm^2 of test molecule on artificial diet, 25° C., five to seven days, average of eight wells, read-out: BAW % Control (or Mortality) rating) lay in the range of 50 to 100%; in assay [2] (168 h, second instar larvae, 50 μg/cm^2 of test molecule on artificial diet, 25° C., five to seven days, average of eight wells, read-out: CL % Control (or Mortality) rating), 50 to 100%. Moreover, the pest or weed control at 50 µg/cm2 in assay [1] (setting [3]) and in assay [2] (setting [4]) was 50 to 100% throughout.
Take `CC(=O)C(=O)Nc1c(F)ccc(NC(=O)c2cc(NC(=O)[C@H]3[C@H](c4ccc(F)c(C(F)(F)F)c4)C3(Cl)Cl)ccc2Cl)c1F` [F1754, 2-Chloro-5-((1R,3R)-2,2-dichloro-3-(4-fluoro-3-(trifluoromethyl)phenyl)cyclopropane-1-carboxamido)-N-(2,4-difluoro-3-(2-oxopropanamido)phenyl)benzamide]: the pest or weed control at 50 µg/cm2 in assay [1] (setting [5]) and in assay [2] (setting [6]) was 50 to 100% throughout.
For the compound `Cc1cc(NC(=O)[C@H]2[C@H](c3cc(Cl)c(Cl)c(Cl)c3)C2(Cl)Cl)cc(C(=O)Nc2ccc(F)c(N)c2F)c1Cl` [F1449, N-(3-Amino-2,4-difluorophenyl)-2-chloro-5-((1R,3R)-2,2-dichloro-3-(3,4,5-trichlorophenyl)cyclopropane-1-carboxamido)-3-methylbenzamide], the pest or weed control at 50 µg/cm2 in assay [1] (setting [5]) and in assay [2] (setting [6]) was 50 to 100% throughout.
`O=C(COC(F)(F)F)Nc1c(F)ccc(NC(=O)c2cc(NC(=O)[C@H]3[C@H](c4cc(F)cc(C(F)(F)F)c4)C3(Cl)Cl)ccc2Cl)c1F` [F1772, 2-Chloro-5-((1R,3R)-2,2-dichloro-3-(3-fluoro-5-(trifluoromethyl)phenyl)cyclopropane-1-carboxamido)-N-(2,4-difluoro-3-(2-(trifluoromethoxy)acetamido)phenyl)benzamide]: the pest or weed control at 50 µg/cm2 in assay [1] (setting [3]) and in assay [2] (setting [4]) was 50 to 100% in each case.
